“Also recorded” adds a separate entry of the source.

A short description of data set [1]: Side effects, case report Example 3. It counts as in vivo, human. Particulars: Ex.3; for most notable side effects of the immunotherapy protocol: 5% imiquimod cream and 5% 5-fluorouracil cream intra-anally, resolved on brief cessation or reduced frequency. From the text: Aug. 7, 2015 HRA done and biopsies taken. […] Pt told to wait until irritation has abated before continuing the imiquimod cream treatments. First perianal HPV-9 vaccination given.
The above case report represents a case of recurrent anal HSIL status post multiple ablative procedures. The patient has HIV infection and thus is moderately immunosuppressed. In spite of the immunosuppression, the patient was able to clear not only HSIL (AIN 2 and AIN 3) but also was able to clear LSIL (AIN 1). The presence of a normal anal pap smear result on Jun. […] 20, 2016. […] It is presumed that the use of the 5-fluorouracil cream treated nests of dysplastic cells that if not treated would likely lead to recurrent LSIL or HSIL. Thus, the immunotherapy protocol may be useful for patients in a salvage situation who have failed multiple ablative procedures with recurrent HSIL in the setting of immunosuppression due to HIV infection. […] This might be due to the immunosuppression secondary to chronic HIV infection.

For data set [2], the system named is anal intraepithelial neoplasia (AIN). The data set is described as follows: HRA with biopsies, case report Example 3. It counts as in vivo, human. Particulars: Ex.3; for anal dysplasia, overall outcome of immunotherapy protocol: 5% imiquimod cream with perianal HPV-9 immunizations followed by 4-5 months of 2-3 times weekly intra-anal 5% 5-fluorouracil cream. The text has this:
(§1) Case Report Summary: The patient is a HIV positive gay with chronic HIV infection who presents with recurrent high grade squamous intraepithelial lesion (HSIL) post multiple ablative treatments. The patient received treatment for their HIV disease with a combination of anti-retroviral medicatons (abacavir, etravirine, prezista and ritonavir which was later modified to dolutegravir, etravirine and prezista and ritonavir). Over the past two years the CD4 count has been in the range of 250-350 and there has been low level HIV viremia (40-400 copies range per ml of plasma) due to intermittent adherence. The patient has other co-morbid conditions including hepatitis C, hypertension, hyperlipidemia, osteoporosis, and high risk sexual activity.
(§2) May 29, 2015 Discussed immunotherapy for recurrent HSIL after failing ablative therapies described above. Patient received HPV-9 vaccine intramuscular in the deltoid. This is the start of the immunotherapy protocol. Patient starts the intra-anal application of 5% imiquimod cream three times per week.
(§3) Jan. 15, 2016 4th perianal HPV-9 vaccination given. Discontinue 5% intra-anal imiquimod cream and begin 5% 5-fluorouracil cream intra-anally three times a week for 20 weeks.

For data set [3], the system named is anal dysplasia. Put plainly: Anal pap smear cytology, case report Example 3. Format: in vivo, human. Particulars: Ex.3, imiquimod + HPV-9 vaccine.
Text: as §1, §2, §3

The subject of data set [4] is anal dysplasia. The data set is described as follows: Anal pap smear cytology, case report Example 1. It counts as in vivo, human. As to the method:
(§4) Case Report Summary: A HIV negative patient with multifocal AIN 2 and AIN 3 in the anal transitional zone was enrolled. The patient was treated with intra-anal imiquimod followed by an intramuscular dose of HPV4 followed by four perianal HPV4 immunizations, each separated by 3-4 weeks. The patient was screened for high risk (HR) HPV DNA on a weekly basis and had multiple biopsies to identify possible dysplasia.
(§5) Detailed Data and Results: A HIV negative person presented for routine health care. […] Patient was referred for HRA. […] 5, 2014. Biopsies indicated the following: distal AIN 1 at three o'clock; AIN 1 at 4 o'clock; AIN 2 at 7 o'clock; AIN 2 at 10 o'clock; and AIN 2 at 12 o'clock. FIGS. 1B and 1C are posterior and anterior views, respectively, showing circumferential staining of the anal canal. Patient received the first immunization with qHPV vaccine IM in the deltoid on Nov. 13, 2014. On Dec. 1, 2014, the patient received the first perianal qHPV vaccine. They started to use 5% imiquimod on Dec. 1, 2014 with one packet applied intra-anally three times weekly.

In data set [5] the test system is HPV other high risk types. The data set is described as follows: Anal HPV typing/assay, case report Example 3. It counts as in vivo, human.
Text: as §1, §2, §3

Data set [6] has as its system anal intraepithelial neoplasia (AIN). The data set is described as follows: High resolution anoscopy (HRA) with biopsies, case report Example 1. It counts as in vivo, human. As to the method:
as §4, §5

The subject of another data set is HPV DNA / AIN. Particulars: cited from earlier work.
Another data set relates to high risk (HR) HPV DNA. The data set is described as follows: Anal pap high risk HPV DNA screen, case report Example 1. It counts as in vivo, human. As to the method: as §4, §5
The nature of data set [7]: Tolerability, case report Example 1. Particulars: Ex.1; intra-anal 5% imiquimod 3x/wk; resolved, restarted after several days to one week. It counts as in vivo, human. From the text:
On Dec. 29, 2014 the patient was again examined and had ASCUS anal pap smear. The anal pap was negative for high risk HPV types. […] The erythema and discomfort resolved and imiquimod was restarted after a period of several days to one week. On Jan. 27, 2015 the anal pap smear was normal and negative for high risk HPV DNA. They received the third perianal qHPV vaccine.

A further data set relates to hepatitis C, genotype 1. The data set is described as follows: Hepatitis C treatment of the Example 3 patient. Particulars: Ex.3 patient; 12 weeks of treatment; 12 weeks post completion of therapy. It counts as in vivo, human.
[8] abbreviates: imiquimod + HPV-9 vaccine, then intra-anal 5% 5-fluorouracil cream from Jan. 15, 2016, Apr. 21, 2016.
Setting [9] is: imiquimod + HPV-9 vaccine, then intra-anal 5% 5-fluorouracil cream from Jan. 15, 2016, Jun. 20, 2016.
[10] abbreviates: then intra-anal 5% 5-fluorouracil cream from Jan. 15, 2016, Jun. 20, 2016.
Where [11] appears, read: Ex.1 HIV negative male with AIN 2/3, intra-anal 5% imiquimod 3x/wk + qHPV (HPV4) vaccine (IM, then 4 perianal).
Where [12] appears, read: Ex.1, imiquimod + qHPV vaccine, Dec. 29, 2014.
[13] abbreviates: Ex.1, imiquimod + qHPV vaccine, Jan. 27, 2015.
Where [14] appears, read: Ex.1, imiquimod + qHPV vaccine, Dec. 11, 2014.
[15] abbreviates: Ex.1, imiquimod + qHPV vaccine, Feb. 10, 2015.
Where [16] appears, read: Ex.1, imiquimod + qHPV vaccine, Feb. 25, 2015.
[17] abbreviates: Ex.1, imiquimod + qHPV vaccine, Pathology Report I.
Where [18] appears, read: Ex.1, imiquimod + qHPV vaccine, Pathology Report II (Feb. 25, 2015).

Regarding `O=c1[nH]cc(F)c(=O)[nH]1` [5-fluorouracil], the “most notable side effects of the immunotherapy protocol” value in [1] was “anal and perianal irritation”. In data set [2], the “anal dysplasia, overall outcome of immunotherapy protocol” value is “clearance of anal dysplasia (AIN 1, AIN 2 and AIN 3)”. The HRA biopsies histology is recorded as 3 o'clock—AIN 1; 5 o'clock—AIN 1; 6 o'clock—AIN 1; 9 o'clock—AIN 1; 10 o'clock—benign; 12 o'clock—benign in data set [2] (setting [8]) and 3 o'clock—benign; 9 o'clock—benign anal mucosa; 10 o'clock—benign anal mucosa; 12 o'clock—benign anal mucosa in [2] (setting [9]). Moreover, the anal pap cytology result with anal dysplasia [3] (setting [10]) was “negative for intraepithelial lesion and malignancy”.

For the compound `CC(C)Cn1cnc2c(N)nc3ccccc3c21` [imiquimod, 3-(2-Methylpropyl)-3,5,8-triazatricyclo[7.4.0.0^2,6]trideca-1(9),2(6),4,7,10,12-hexaen-7-amine], the “anal Pap smear, overall outcome” value in the data set on anal dysplasia [4] (setting [11]) was “normalization of the anal Pap smear from ASCUS”. The “anal pap smear cytology” value is “ASCUS” in the data set on anal dysplasia [4] (setting [12]); “normal; also recorded: negative for intraepithelial lesion and malignancy” with anal dysplasia [4] (Ex.1, imiquimod + qHPV vaccine, Feb. 25, 2015 (Pathology Report II concurrent pap)); “normal” in the data set with anal dysplasia [4] (setting [13]). In addition, the anal pap cytology result with anal dysplasia [4] (Ex.1, imiquimod + qHPV vaccine, Feb. 10, 2015 (Pathology Report I concurrent pap)) was “normal; also recorded: negative for intraepithelial lesion and malignancy”; in the data set on anal dysplasia [3] (setting [10]), “negative for intraepithelial lesion and malignancy”; with anal dysplasia [3] (Oct. 28, 2015), “atypical cells of undetermined significance (ASCUS)”; in the data set on anal dysplasia [3] (Sep. 30, 2015), “LSIL”. Moreover, in data set [1], the “most notable side effects of the immunotherapy protocol” value is “anal and perianal irritation”. In addition, in [1] (intra-anal 5% imiquimod cream 3x/wk, Aug. 7, 2015), the “patient complaints due to imiquimod cream treatments” value is “anal irritation and spotting of blood per anus”. In addition, the HPV typing entry in data set [5] (Ex.3 HIV positive male, recurrent HSIL after ablative treatments, intra-anal 5% imiquimod 3x/wk + HPV-9 vaccine IM (May 29, 2015), Aug. 7, 2015) is “positive for other high risk types”. Besides, in [5] (Ex.3, imiquimod + HPV-9 vaccine (IM, 1 perianal), Sep. 30, 2015), the HPV assay result is listed as “continued presence of other HPV high risk types”. Besides, the “anal dysplasia, overall outcome” value in [6] (setting [11]) was “resolution of anal dysplasia”. Further, the HRA biopsies histology entry is “AIN 1 at 4 o'clock; AIN 2 at 7 o'clock and AIN 3 at 12 o'clock” in data set [6] (setting [14]); “AIN 2 at 7 o'clock and focal AIN 1 at 12 o'clock” in [6] (setting [12]); “normal histology at 4, AIN 1 at 10 and small focal AIN 2 at 12 o'clock” in data set [6] (setting [15]); 3 o'clock—AIN 2; 4 o'clock—AIN 1; 9 o'clock—AIN 1; 10 o'clock distal—AIN 1; 12 o'clock AIN 2 in data set [2] (imiquimod + HPV-9 vaccine IM, Aug. 7, 2015); 3 o'clock—AIN 1; 5 o'clock—AIN 1; 6 o'clock—AIN 1; 9 o'clock—AIN 1; 10 o'clock—benign; 12 o'clock—benign in [2] (setting [8]); 3 o'clock—benign; 9 o'clock—benign anal mucosa; 10 o'clock—benign anal mucosa; 12 o'clock—benign anal mucosa in [2] (setting [9]). The HRA biopsies histology in data set [2] (imiquimod + HPV-9 vaccine, Dec. 9, 2015) is listed as 3 o'clock AIN—1; 6 o'clock—AIN 1; 9 o'clock—benign; in data set [2] (imiquimod + HPV-9 vaccine, Oct. 28, 2015) it was 1 o'clock—AIN 1; 4 o'clock—benign; 9 o'clock—AIN 1; 12 o'clock—AIN 1; in data set [2] (imiquimod + HPV-9 vaccine, Sep. 30, 2015), 3 o'clock—AIN 1; 4 o'clock—AIN 1; 9 o'clock—AIN 1; 10 o'clock—AIN 1; 12 o'clock—benign. Also, the “anoscopist's observation of anal canal epithelium” value in data set [6] (setting [16]) was “remodeling of the anal canal epithelium, replacing thickened dysplastic epithelium with thin, translucent epithelium, which is normal”. Besides, in data set [6] (setting [13]), the “biopsies at 2, 6, 10 and 12 o'clock” value is given as “all normal without evidence of dysplasia”. In [6] (setting [17]), the “biopsy diagnosis, anal canal 4 o'clock (transition zone)” value was “no evidence of dysplasia or malignancy”. The “biopsy diagnosis, anal canal 10 o'clock (transition zone)” value in data set [6] (setting [17]) is “AIN 1”. In addition, the “biopsy diagnosis, anal canal 12 o'clock (transition zone)” value in data set [6] (setting [17]) was “AIN 2”. Also, the “biopsy diagnosis, anal canal 5 o'clock” value in data set [6] (setting [18]) was “no evidence of dysplasia or malignancy”. In [6] (setting [18]), the “biopsy diagnosis, anal canal 7 o'clock” value is “no evidence of dysplasia or malignancy”. Further, the “biopsy diagnosis, anal canal 10 o'clock” value in data set [6] (setting [18]) is listed as “no evidence of dysplasia or malignancy”. Besides, in data set [6] (setting [18]), the “biopsy diagnosis, anal canal 12 o'clock” value is reported as “no evidence of dysplasia or malignancy”. In addition, the “anal dysplasia, overall outcome of immunotherapy protocol” value in data set [2] is “clearance of anal dysplasia (AIN 1, AIN 2 and AIN 3)”. In addition, the “developed recurrent AIN” value in the data set with HPV DNA / AIN (after intra-anal 5% imiquimod cream, mean follow up approximately 30 months, often HPV types differing from start) is recorded as 5 patient. For the same compound, the “HPV DNA viral loads” value in the data set with HPV DNA / AIN (intra-anal 5% imiquimod cream three times weekly for 16 weeks, 19 HIV positive men with AIN) is “decreased”. Also, in the data set with high risk (HR) HPV DNA (setting [11]), the “HR HPV DNA, overall outcome” value was “loss of HR HPV DNA including HPV16”. Also, the “anal pap high risk HPV DNA” value in the data set with high risk (HR) HPV DNA (setting [14]), in the data set on high risk (HR) HPV DNA (setting [15]) and in the data set on high risk (HR) HPV DNA (setting [13]) was “negative” throughout. In addition, the “anal pap high risk HPV types” value in the data set on high risk (HR) HPV DNA (setting [12]) is “negative”. For the same compound, in the data set on high risk (HR) HPV DNA (setting [16]), the “HPV DNA” value was “negative”. The “local adverse effect leading to interruptions of imiquimod cream” value in [7] is listed as “increased perianal erythema”.

Take `CCN(CC)CC(=O)Nc1c(C)cccc1C` [lidocaine]: the “burning at the site of HPV vaccination” value in [1] (local infusion of 1% lidocaine prior to perianal HPV-9 vaccinations) is “much less burning”.

Turning to sofosbuvir/ledipasvir, the virologic response result in the data set with hepatitis C, genotype 1 is reported as “sustained virologic response”.

Values taken from US10561723B2, “Treatment and prevention of anal conditions” (priority 2015, dated 2020).
